# Assay results reported in article PMC3433420 (PLoS ONE, 2012).
# Residues, ends and D or L forms follow the SMILES beside them.
# Experiments:
# PIK3R3-N SH2 domain = target: T1, PIK3R3-N SH2 domain (Homo sapiens, UniProt Q92569); assay: FP saturation binding assay; details: high-confidence ErbB interactions
# T1 construct: 6X His; thioredoxin; made in house; host or cells: E. coli BL21(DE3)pLysS
# Summary of the method: (§1)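 Rhodamine-labeled phosphopeptides (10 nM final) titrated with SH2 domain protein (0.002–10 µM, 12 points) in 20 mM HEPES, 100 mM KCl, 0.1% Tween-20, 5 mM DTT, pH 7.8; 20 min, room temperature, dark. FP read at 530/555 nm; KD fitted by nonlinear regression after thioredoxin background correction and outlier removal.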
# [1] = target: T2, PIK3R3-NC tandem SH2 domains (Homo sapiens, UniProt Q92569); assay: FP saturation binding assay; details: high-confidence ErbB interactions
# T2 construct: the tandem protein was included in our analysis with all internal amino acids linking the domains; 6X His; thioredoxin; made in house; host or cells: E. coli BL21(DE3)pLysS
# Summary of the method: as §1
# LYN SH2 domain = target: T3, LYN SH2 domain (Homo sapiens, UniProt P07948); assay: FP saturation binding assay; details: high-confidence ErbB interactions
# T3 construct: 93 SH2 and 2 PTB domain-containing constructs; 6X His; thioredoxin; made in house; host or cells: E. coli BL21(DE3)pLysS
# Summary of the method: as §1
# LCK SH2 domain = target: T4, LCK SH2 domain (Homo sapiens, UniProt P06239); assay: FP saturation binding assay; details: high-confidence ErbB interactions
# T4 construct: 93 SH2 and 2 PTB domain-containing constructs; 6X His; thioredoxin; made in house; host or cells: E. coli BL21(DE3)pLysS
# Summary of the method: as §1
# SH2 and PTB domains = target: T5, SH2 and PTB domains (Homo sapiens, UniProt P46109); assay: In-house protein microarrays (with or without 5 mM DTT), protein named per line; format: binding; details: protein CRKL
# T5 construct: thioredoxin; made in house; host or cells: BL21(DE3)pLysS E. coli
# Summary of the method: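 Recombinant domains (~40 µM) spotted in duplicate on aldehyde slides, quenched 1 h at room temperature in HEPES/KCl/Tween-20 buffer pH 7.8 with 5 mM DTT and 1% BSA, then probed with rhodamine-labeled peptide. Thioredoxin-subtracted mean fluorescence fitted for KD.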
# [2] = Protein PIK3R3-N, FP saturation binding, mean over replicate hits
# [3] = Protein PIK3R3-NC, FP saturation binding, mean over replicate hits
# [4] = protein LCK, FP, mean of replicate hits
# T4 sequence (P06239 127-224 limits assumed): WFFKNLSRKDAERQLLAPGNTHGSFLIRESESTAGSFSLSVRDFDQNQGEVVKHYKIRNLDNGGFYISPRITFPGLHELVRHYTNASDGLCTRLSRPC
# T3 sequence (P07948 129-226 limits assumed): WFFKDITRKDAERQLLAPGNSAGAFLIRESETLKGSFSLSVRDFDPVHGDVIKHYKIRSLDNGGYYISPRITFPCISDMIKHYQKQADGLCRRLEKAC
# T5 sequence (P46109 whole entry, the tested form may be a part): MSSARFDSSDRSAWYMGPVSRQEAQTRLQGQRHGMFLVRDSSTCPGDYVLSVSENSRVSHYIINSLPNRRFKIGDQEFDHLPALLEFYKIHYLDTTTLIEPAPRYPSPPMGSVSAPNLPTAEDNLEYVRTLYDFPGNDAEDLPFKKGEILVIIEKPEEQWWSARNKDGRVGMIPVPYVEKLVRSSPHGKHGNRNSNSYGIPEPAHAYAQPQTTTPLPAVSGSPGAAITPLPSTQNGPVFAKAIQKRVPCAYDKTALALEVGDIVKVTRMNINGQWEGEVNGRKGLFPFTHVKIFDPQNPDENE
smiles,measurement,setting,value
CC(C)C[C@H](NC(=O)[C@H](Cc1ccc(OP(=O)(O)O)cc1)NC(=O)[C@H](CCC(=O)O)NC(=O)[C@H](CCC(=O)O)NC(=O)[C@H](C)NC(=O)[C@@H](N)CC(=O)O)C(=O)N[C@H](C(=O)N1CCC[C@H]1C(=O)N[C@@H](CCC(N)=O)C(=O)N[C@@H](CCC(N)=O)C(=O)NCC(=O)N[C@@H](Cc1ccccc1)C(=O)N[C@@H](CC(=O)O)C(=O)O)C(C)C [ErbB2 1023 13-mer] (HELM PEPTIDE1{D.A.E.E.[O=C([C@H](Cc1ccc(OP(=O)(O)O)cc1)N[*:1])[*:2]].L.V.P.Q.Q.G.F.D}$$$$V2.0),Kd,PIK3R3-N SH2 domain; [2],5.27 µM
same,Kd,[1]; [3],10.7 µM
CC(C)[C@H](NC(=O)[C@H](CC(=O)O)NC(=O)[C@@H]1CCCN1C(=O)[C@H](CCC(N)=O)NC(=O)[C@H](CC(N)=O)NC(=O)[C@@H](NC(=O)[C@H](Cc1ccc(OP(=O)(O)O)cc1)NC(=O)[C@H](CCC(=O)O)NC(=O)[C@@H]1CCCN1C(=O)[C@H](CCC(N)=O)NC(=O)[C@@H]1CCCN1)C(C)C)C(=O)N[C@@H](CCCNC(=N)N)C(=O)N[C@@H](CC(=O)O)C(=O)O [ErbB2 1139 13-mer] (HELM PEPTIDE1{P.Q.P.E.[O=C([C@H](Cc1ccc(OP(=O)(O)O)cc1)N[*:1])[*:2]].V.N.Q.P.D.V.R.D}$$$$V2.0),Kd,PIK3R3-N SH2 domain; [2],9.05 µM
same,Kd,[1]; [3],5.18 µM
CC(C)C[C@H](NC(=O)[C@H](CC(N)=O)NC(=O)[C@@H](N)CC(=O)O)C(=O)N[C@@H](Cc1ccc(O)cc1)C(=O)N[C@@H](Cc1ccc(OP(=O)(O)O)cc1)C(=O)N[C@@H](Cc1c[nH]c2ccccc12)C(=O)N[C@@H](CC(=O)O)C(=O)N[C@@H](CCC(N)=O)C(=O)N[C@@H](CC(=O)O)C(=O)N1CCC[C@H]1C(=O)N1CCC[C@H]1C(=O)N[C@@H](CCC(=O)O)C(=O)N[C@@H](CC(=O)O)C(=O)O [ErbB2 1222 13-mer] (HELM PEPTIDE1{D.N.L.Y.[O=C([C@H](Cc1ccc(OP(=O)(O)O)cc1)N[*:1])[*:2]].W.D.Q.D.P.P.E.D}$$$$V2.0),Kd,"LYN SH2 domain; Protein LYN, FP saturation binding, mean over replicate hits",4.18 µM
same,Kd,PIK3R3-N SH2 domain; [2],9.63 µM
same,Kd,[1]; [3],10.3 µM
same,Kd,"LCK SH2 domain; Protein LCK, FP saturation binding, mean over replicate hits",7.7 µM
CC(C)C[C@H](NC(=O)[C@@H]1CCCN1C(=O)[C@H](C)NC(=O)[C@@H](NC(=O)[C@H](Cc1ccc(OP(=O)(O)O)cc1)NC(=O)CNC(=O)[C@H](CC(=O)O)NC(=O)[C@@H](NC(=O)[C@@H](N)CCC(=O)O)[C@@H](C)O)C(C)C)C(=O)N[C@H](C(=O)N[C@@H](CS)C(=O)N[C@@H](CO)C(=O)N[C@@H](CC(=O)O)C(=O)O)[C@@H](C)O [ErbB2 pY1127],Kd,"SH2 and PTB domains; PM assay replicate # 39336, array fabrication # 39329",4.80 µM
same,Kd,"SH2 and PTB domains; PM assay replicate # 39337, array fabrication # 39329",0.64 µM
CSCC[C@H](NC(=O)[C@H](Cc1ccc(OP(=O)(O)O)cc1)NC(=O)[C@H](CCC(=O)O)NC(=O)[C@H](Cc1ccc(O)cc1)NC(=O)CNC(=O)[C@@H](N)CC(C)C)C(=O)N[C@@H](CC(=O)O)C(=O)N[C@H](C(=O)NCC(=O)N[C@@H](CO)C(=O)N[C@@H](CC(=O)O)C(=O)N[C@@H](CC(C)C)C(=O)N[C@@H](CC(=O)O)C(=O)O)C(C)C [ErbB3 1224 13-mer] (HELM PEPTIDE1{L.G.Y.E.[O=C([C@H](Cc1ccc(OP(=O)(O)O)cc1)N[*:1])[*:2]].M.D.V.G.S.D.L.D}$$$$V2.0),Kd,"LYN SH2 domain; protein LYN, FP, mean of replicate hits",6.86 µM
same,Kd,LCK SH2 domain; [4],3.02 µM
CSCC[C@H](NC(=O)[C@H](CCC(=O)O)NC(=O)[C@H](CCC(=O)O)NC(=O)[C@H](Cc1ccc(OP(=O)(O)O)cc1)NC(=O)CNC(=O)[C@H](CCC(N)=O)NC(=O)[C@H](CCC(=O)O)NC(=O)[C@@H](N)CO)C(=O)N[C@@H](CCCNC(=N)N)C(=O)N[C@@H](C)C(=O)N[C@@H](Cc1ccccc1)C(=O)N[C@@H](CCC(N)=O)C(=O)N[C@@H](CC(=O)O)C(=O)O [ErbB3 1289 13-mer] (HELM PEPTIDE1{S.E.Q.G.[O=C([C@H](Cc1ccc(OP(=O)(O)O)cc1)N[*:1])[*:2]].E.E.M.R.A.F.Q.D}$$$$V2.0),Kd,"PIK3R3-N SH2 domain; protein PIK3R3-N, FP, mean of replicate hits",0.3 µM
same,Kd,LCK SH2 domain; [4],2.23 µM
CSCC[C@H](NC(=O)[C@H](Cc1ccc(OP(=O)(O)O)cc1)NC(=O)CNC(=O)[C@H](CCC(=O)O)NC(=O)[C@H](CCC(=O)O)NC(=O)[C@H](CC(=O)O)NC(=O)[C@H](CC(C)C)NC(=O)[C@H](CCC(=O)O)NC(=O)CNC(=O)[C@H](CCCNC(=N)N)NC(=O)[C@@H]1CCCN1)C(=O)N[C@H](C(=O)N1CCC[C@H]1C(=O)N[C@@H](CCSC)C(=O)N[C@@H](CCCNC(=N)N)C(=O)N[C@@H](CC(=O)O)C(=O)N[C@@H](CCCCN)C(=O)N[C@@H](CC(=O)O)C(=O)O)[C@@H](C)O [ErbB4 1150 18-mer] (HELM PEPTIDE1{P.R.G.E.L.D.E.E.G.[O=C([C@H](Cc1ccc(OP(=O)(O)O)cc1)N[*:1])[*:2]].M.T.P.M.R.D.K.D}$$$$V2.0),Kd,"[1]; protein PIK3R3-NC, FP, mean of replicate hits",2.5 µM
CC(C)C[C@H](NC(=O)[C@H](Cc1ccc(OP(=O)(O)O)cc1)NC(=O)[C@H](CC(C)C)NC(=O)[C@@H]1CCCN1C(=O)[C@H](CCC(=O)O)NC(=O)[C@H](CC(N)=O)NC(=O)[C@@H](NC(=O)[C@H](Cc1ccc(O)cc1)NC(=O)[C@H](CCC(=O)O)NC(=O)[C@H](CC(=O)O)NC(=O)[C@@H](N)CCC(=O)O)C(C)C)C(=O)N[C@@H](CC(N)=O)C(=O)N[C@H](C(=O)N[C@@H](Cc1ccccc1)C(=O)N[C@@H](C)C(=O)N[C@@H](CC(N)=O)C(=O)N[C@H](C(=O)N[C@@H](CC(=O)O)C(=O)O)[C@@H](C)O)[C@@H](C)O [ErbB4 1208 18-mer] (HELM PEPTIDE1{E.D.E.Y.V.N.E.P.L.[O=C([C@H](Cc1ccc(OP(=O)(O)O)cc1)N[*:1])[*:2]].L.N.T.F.A.N.T.D}$$$$V2.0),Kd,"LYN SH2 domain; protein LYN, mean of replicate hits",5.15 µM
same,Kd,"[1]; protein PIK3R3-NC, mean of replicate hits",3.02 µM
CC[C@H](C)[C@H](NC(=O)[C@H](CC(N)=O)NC(=O)[C@H](CC(N)=O)NC(=O)[C@H](CCCCN)NC(=O)[C@H](CC(C)C)NC(=O)[C@H](Cc1ccc(OP(=O)(O)O)cc1)NC(=O)[C@H](CCC(=O)O)NC(=O)[C@H](C)NC(=O)[C@H](CCCCN)NC(=O)CNC(=O)[C@H](CC(C)C)NC(=O)[C@@H](NC(=O)[C@H](CC(N)=O)NC(=O)[C@H](C)NC(=O)[C@@H](N)Cc1ccccc1)[C@@H](C)O)C(=O)N[C@@H](CC(C)C)C(=O)N[C@@H](CO)C(=O)N[C@@H](CC(=O)O)C(=O)O [ErbB4 pY1221 (18-mer)] (HELM PEPTIDE1{F.A.N.T.L.G.K.A.E.[O=C([C@H](Cc1ccc(OP(=O)(O)O)cc1)N[*:1])[*:2]].L.K.N.N.I.L.S.D}$$$$V2.0),Kd,"SH2 and PTB domains; PM assay replicate # 39307, array fabrication # 39286",0.11 µM
